According to patent publication US20230121313A1 (priority 2019, published 2023):

Tests used:
subjects with TRD = details: human, in vivo, other: intranasal
Method: The Clinician Administered Dissociative States Scale (CADSS) was measured prior to the start of each dose, at 40 minutes, and 1.5 hours postdose.

[1] = Pharmacokinetics of intranasal esketamine 28, 56, 84 mg in healthy subjects (Example 9); details: for AUC(0-inf) / AUC(0-t) / Cmax / half-life / Tmax: both, human, plasma; for Tmax: healthy subjects
Method: This was an open-label, single-center study. The subjects were healthy Caucasian men and women, 20 to 55 years of age, inclusive. […] The solution consisted of:
Pharmacokinetic blood samples for measurement of esketamine and noresketamine concentrations in plasma were collected from predose until up to 24 hours after each intranasal esketamine regimen on Day 1 of each period.
Blood samples (4 mL each) for determination of esketamine and noresketamine plasma concentrations were collected into the appropriate collection tube (e.g., Vacutainer®) at timepoints 0.00, 0.12, 0.20, 0.37, 0.53, 0.67, 0.83, 1.00, 1.25, 1.50, 2.00, 3.00, 4.00, 6.00, 9.00, 12.00, 18.00, and 24.00 h. The total amount of blood to be drawn for clinical laboratory tests and PK evaluations is approximately 327 mL.
Plasma samples were analyzed for esketamine and noresketamine concentrations using the validated, specific and sensitive liquid chromatography coupled to tandem mass spectrometry (LC-MS/MS) achiral method of Example 8.
Serial PK blood samples (4 mL each) were collected for a 24-hour period from each subject (Periods 1, 2, and 3).
The following key parameters of esketamine and noresketamine in plasma were calculated using noncompartmental methods and actual sampling times: Cmax, tmax, AUClast, AUC∞, t1/2,λ, and λz.

[2] = tested on: subjects with MDD at imminent risk for suicide; details: 84 mg; double-blind phase; N = 35
From the text: Among 68 randomized subjects, 66 were included in the safety analysis set (defined as receiving at least one dose of study medication in the double-blind phase). […] All safety subjects (N=66) were included in the intent-to-treat (ITT) analysis set (defined as receiving at least one dose of study medication during the double-blind phase and having both the baseline and the Day 1, 4-hour postdose evaluation for the MADRS total score). Forty-nine subjects were included in the safety (FU) analysis set (defined as all subjects who have at least 1 visit during the follow up phase).

For `CN[C@]1(c2ccccc2Cl)CCCCC1=O` [esketamine, (S)-2-(2-chlorophenyl)-2-(methylamino)cyclohexanone], the “CADSS dissociative/perceptual change symptoms resolved by (post dose)” value (subjects with TRD) was at most 1.5 h, the AUC(0-inf) ([1]; inhaled or intranasal, 28 mg) was 136 ng·h/mL and the AUC(0-t) ([1]; inhaled or intranasal, 28 mg) was 128 ng·h/mL. It also gave a Cmax ([1]; inhaled or intranasal, 28 mg) of 49.7 ng/mL, a half-life ([1]; inhaled or intranasal, 28 mg) of 7.25 h and a Tmax ([1]; inhaled or intranasal, 28 mg, tmax, esketamine in plasma, single intranasal 28 mg (Treatment A), median) of 0.67 h. It also gave an AUC(0-inf) ([1]; inhaled or intranasal, 56 mg) of 222 ng·h/mL, an AUC(0-t) ([1]; inhaled or intranasal, 56 mg) of 216 ng·h/mL and a Cmax ([1]; inhaled or intranasal, 56 mg) of 74.1 ng/mL. The half-life ([1]; inhaled or intranasal, 56 mg) was 7.25 h, the Tmax ([1]; inhaled or intranasal, 56 mg, tmax, esketamine in plasma, single intranasal 56 mg (Treatment B), median) was 0.67 h and the AUC(0-inf) ([1]; inhaled or intranasal, 84 mg) was 329 ng·h/mL. It also gave an AUC(0-t) ([1]; inhaled or intranasal, 84 mg) of 310 ng·h/mL, a Cmax ([1]; inhaled or intranasal, 84 mg) of 103 ng/mL and a half-life ([1]; inhaled or intranasal, 84 mg) of 7.11 h. It also gave a Tmax ([1]; inhaled or intranasal, 84 mg, Median tmax of esketamine, range across regimens, intranasal 28, 56, 84 mg) of 0.67 to 0.83 h, a Tmax ([1]; inhaled or intranasal, 84 mg, tmax, esketamine in plasma, single intranasal 84 mg (Treatment C), median) of 0.83 h and a half-life ([1]; other: intranasal, 84 mg) of 7.11 to 7.25 h. The “AUC (AUClast and AUC∞) variability” value ([1]; esketamine in plasma) was 25.0% to 30.4, the “Cmax variability (percent coefficient of variation) across the 3 treatment groups” value ([1]; esketamine in plasma) was 35.7% to 36.7 and the “Serious TEAE: Agitation, subjects (%)” value [2] was 2.9%. For the same compound, the “Serious TEAE: Depressive symptom, subjects (%)” value [2] was 2.9%, the “Serious TEAE: Psychiatric disorders, subjects (%)” value [2] was 11.4% and the “Serious TEAE: Suicidal ideation, subjects (%)” value [2] was 5.7%. The “Subjects with 1 or more serious TEAE (%)” value [2] was 11.4%, the “Subjects with TEAE leading to drug withdrawn (%)” value [2] was 14.3% and the “TEAE Acne, subjects (%)” value [2] was “(5.7%)”. The “TEAE Agitation, subjects (%)” value [2] was “(8.6%)”, the “TEAE Anxiety, subjects (%)” value [2] was “(17.1%)” and the “TEAE Blood pressure increased, subjects (%)” value [2] was “(5.7%)”. For the same compound, the “TEAE Diarrhea, subjects (%)” value [2] was “(8.6%)”, the “TEAE Diplopia, subjects (%)” value [2] was “(5.7%)” and the “TEAE Dissociation, subjects (%)” value [2] was “(31.4%)”. For the same compound, the “TEAE Dizziness postural, subjects (%)” value [2] was “(5.7%)”, the “TEAE Dizziness, subjects (%)” value [2] was “(34.3%)” and the “TEAE Dry mouth, subjects (%)” value [2] was “(8.6%)”. For the same compound, the “TEAE Dysgeusia, subjects (%)” value [2] was “(31.4%)”, the “TEAE Ear and labyrinth disorders, subjects (%)” value [2] was “(25.7%)” and the “TEAE Euphoric mood, subjects (%)” value [2] was “(11.4%)”. The “TEAE Eye disorders, subjects (%)” value [2] was “(20.0%)”, the “TEAE Fatigue, subjects (%)” value [2] was “(5.7%)” and the “TEAE Feeling abnormal, subjects (%)” value [2] was “(8.6%)”. For the same compound, the “TEAE Feeling cold, subjects (%)” value [2] was “(5.7%)”, the “TEAE Flatulence, subjects (%)” value [2] was “(2.9%)” and the “TEAE Gastrointestinal disorders, subjects (%)” value [2] was “(54.3%)”. For the same compound, the “TEAE General disorders and administration site conditions, subjects (%)” value [2] was “(28.6%)”, the “TEAE Headache, subjects (%)” value [2] was “(31.4%)” and the “TEAE Hyperacusis, subjects (%)” value [2] was “(5.7%)”. For the same compound, the “TEAE Hyperhidrosis, subjects (%)” value [2] was “(5.7%)”, the “TEAE Hypoesthesia oral, subjects (%)” value [2] was “(5.7%)” and the “TEAE Hypoesthesia, subjects (%)” value [2] was “(8.6%)”. The “TEAE Infections and infestations, subjects (%)” value [2] was “(2.9%)”, the “TEAE Insomnia, subjects (%)” value [2] was “(8.6%)” and the “TEAE Investigations, subjects (%)” value [2] was “(14.3%)”. The “TEAE Nasal congestion, subjects (%)” value [2] was “(2.9%)”, the “TEAE Nasal discomfort, subjects (%)” value [2] was “(8.6%)” and the “TEAE Nausea, subjects (%)” value [2] was “(37.1%)”. The “TEAE Nervous system disorders, subjects (%)” value [2] was “(71.4%)”, the “TEAE Oropharyngeal pain, subjects (%)” value [2] was “(5.7%)” and the “TEAE Paresthesia oral, subjects (%)” value [2] was “(5.7%)”. For the same compound, the “TEAE Paresthesia, subjects (%)” value [2] was “(17.1%)”, the “TEAE Pharyngeal hypoesthesia, subjects (%)” value [2] was “(5.7%)” and the “TEAE Psychiatric disorders, subjects (%)” value [2] was “(57.1%)”. The “TEAE Rash, subjects (%)” value [2] was “(2.9%)”, the “TEAE Renal and urinary disorders, subjects (%)” value [2] was “(2.9%)” and the “TEAE Respiratory, thoracic and mediastinal disorders, subjects (%)” value [2] was “(25.7%)”. For the same compound, the “TEAE Sedation, subjects (%)” value [2] was “(17.1%)”, the “TEAE Skin and subcutaneous tissue disorders, subjects (%)” value [2] was “(14.3%)” and the “TEAE Somnolence, subjects (%)” value [2] was “(11.4%)”. For the same compound, the “TEAE Suicidal ideation, subjects (%)” value [2] was “(5.7%)”, the “TEAE Throat irritation, subjects (%)” value [2] was “(8.6%)” and the “TEAE Tinnitus, subjects (%)” value [2] was “(5.7%)”. The “TEAE Vertigo, subjects (%)” value [2] was “(11.4%)”.
